Read-outs that look alike come from different tables or passages of the source. Blank lines part the entries; values can stand above or below the compound they belong to.
Assays:
[1] = test system: L1 retrotransposition reporter in HeLa cells; experiment: LINE-1 dual luciferase retrotransposition assay in HeLa cells; format: cell-based, human; conditions: for IC50: HeLa cells, stable dual luciferase L1 reporter, normalized to cell viability, n = 3 wells
[2] = target: T1, ORF2p core (Homo sapiens, UniProt O00370); experiment: Homogeneous time-resolved fluorescence (HTRF) ORF2p RT assay; format: biochemical
T1 construct: His6-MBP-3C-ORF2p (238-1061, ORFeus-Hs) in pET41; His6-MBP (3C protease site) (N, cleaved yes); made in house; host or cells: E. coli
Procedure: (§1) ORF2p core was preincubated with a template:primer containing a single site for the incorporation of a given nucleotide analogue. The primer/template sequence shown in the panel a illustrates the case of single incorporation of 3TC, with a single G for incorporation; the incoming template sequence for entecavir and carbovir has a single C, and for d4T a single A, each at position labeled “N”. Reactions were incubated for one minute at 37 °C with a 100 nM dNTP mixture and increasing concentrations of listed inhibitors. IC50 index, fold = IC50 (drug, µM) ÷ [dNTP] […] Fluorescein-labeled dNTPs (here, uracil-TP) are incorporated by ORF2p into a biotinylated primer, here shown against a poly(A) template. Detection is then achieved using FRET with a terbium cryptate labeled streptavidin, and the time-resolved technique and time-delayed emission from terbium cryptate reduces background from other fluorescent chemicals in the mix. In the presence of ORF2p RT inhibitors (RTIs), base incorporation is stopped and FRET signal is lost. […]
(§2) ORF2p reverse transcriptase activity assays […]
For HTRF RT assays157, 25 nM ORF2p core and 12. 5 nM t em plat e: primer was incubated at 25°C for 60 minutes
with 10 nM of fluorescein- 12- dUTP (Thermo), 1 µM each (dATP,dCTP,dGTP), and test compound in a 15 µL
reaction with buffer containing 50 mM Tris-HCl, 50 mM KCl, 10 mM MgCl2, 10 mM DTT, pH 8.1, and 1% final

[3] = target: T1, ORF2p core; experiment: Gel-based L1 RT assay, ORF2p core, inhibition by NRTI triphosphates; format: biochemical; conditions: 100 nM dNTP mixture; for IC50: NTP forms of NRTIs, one minute at 37 °C
Procedure: as §1, §2
Gel-based RT activity assays consisted of pr e-incubating RTs with annealed DNA/RNA, DNA/DNA, or RNA/RNA 5’- end- radiolabeled or 5’-end-Cy5- o r FAM-labeled template:primer duplex or hybrid duplex and, where indicated, inhibitor in the presence of 0.1- 1 μ M dNTP or NTP mixture, 0.25 mM EDTA, 50 mM NaCl, and 25 mM Tris (pH 8) for 10 min at 37°C. Labeled nucleic acids were purchased from Dharmacon or IDT. Unless otherwise indicated, 15 μL reactions were initiated by the addition of 1.3 mM MgCl2, incubated for 10 min at 37 °C, and then stopped by the addition of 15 μL of formamide/EDTA (25 mM) mixture and incubated at 95 °C for 10 min. 3 μL reaction samples were subjected to denaturing 8 M urea 20% PAGE to resolve products followed by signal quantification (ImageQuant 5.2, GE Healthcare Bio- Sciences) through phosphorimaging (Amersham Typhoon 5, Cytivia). Scanned gel images are […]
minor products; original images are provided in an Extended Data file. […]

[4] = test system: interferon production in THP1 cells; experiment: Interferon reporter assay in THP1 cells (secreted luciferase); format: cell-based, human
Procedure: Culture Collection ( AT CC); THP1-Dual and THP1- Dual KO-TREX1 cells were from InvivoGen. All cell lines were maintained at 37 °C and 5% CO2 and validated and tested for mycoplasma. All plasmids and affinity reagents are described in Supplementary Tables 4-5 , respectively and available from Addgene at https://www.addgene.org/browse/article/28243724/. […]
Interferon reporter assay in THP1 cells
The type I interferon response was evaluated using THP1 -Dual and THP1-Dual KO-TREX1 cells (InvivoGen), which secrete a Lucia luciferase reporter gene under control of an interferon- responsive promoter. THP1-Dual KO-TREX1 cell were generated by stable biallelic knock-out of the TREX1 gene. Cell were treated with a dose titration of test compound in the presence of 1 µM 5- aza-2ʹ-deoxycytidine (decitabine, Sigma, #189825), which de- represses LINE-1121. Type 1 Interferon and cell viability were assessed after five days of treatment. QUANTI-LUC solution containing stabilizer was added to the cell supernatant and luminescence was measured on a p la t e reader, and cells were assessed for cell viability using CellTiter-Glo (Promega, #G9683) according to the manufacturer’s instructions.
LINE-1 dual luciferase retrotransposition assay
To assess the potency of inhibiting LINE-1 retrotransposon, a stable clonal dual luciferase L1 reporter cell line was generated and reported as described130,133 in the HeLa Tet-On 3G cell line (Takara, ). SB100x161 was used to integrate pRT006.2, a vector similar to pYX056 130 , which contains a bi-directional Tet-On promoter expressing both control Renilla luciferase and LINE-1 ORFeus-Hs Firefly luciferase antisense intron (AI) r epor t er 79,162. A single cell clone was selected with the highest doxycycline-induced luciferase signal vs baseline. Cells were mixed with compounds and induced for reporter expression with 500 ng/mL doxycycline (Sigma, #D9891) for 72 hours. Luminescence was measured using the Dual-Glo Luciferase Assay System (Promega, #E2940) following the manufacturer’s instructions, and the ratio of Firefly to Renilla Luciferase activity was used to measure […]
Telomerase activity assay
The human telomerase assay was performed with telomerase in MCF- 7 cell lysates using the Telo TAGGG Telomerase PCR ELISAplus kit (Roche). Test compounds (NTPs) were serially diluted in water, mixed with 0.2 µg of M CF- 7 lysate, and pre- incubated at room temperature for 15 minutes. Then the reaction was carried out for 30 minutes, amplified using PCR, and visualized colorimetrically per t he manufacturer’s instructions.
Cells were lysed in ice cold RIPA buffer containing 1x protease inhibitor tablet (Thermo), centrifuged for 10 minutes, and clarified lysates were quantified by BCA assay. […]

[5] = target: T2, human telomerase RT (TERT) (Homo sapiens, UniProt O14746); experiment: Telomerase activity assay in MCF-7 cell lysate; format: biochemical; conditions: NRTI triphosphates
T2 construct: of human telomerase RT (TERT) by NRTI triphosphates in a biochemical assay in MCF-7 cell lysate; endogenous in cells; host or cells: MCF-7 cell lysate
T2 sequence (O14746 whole entry): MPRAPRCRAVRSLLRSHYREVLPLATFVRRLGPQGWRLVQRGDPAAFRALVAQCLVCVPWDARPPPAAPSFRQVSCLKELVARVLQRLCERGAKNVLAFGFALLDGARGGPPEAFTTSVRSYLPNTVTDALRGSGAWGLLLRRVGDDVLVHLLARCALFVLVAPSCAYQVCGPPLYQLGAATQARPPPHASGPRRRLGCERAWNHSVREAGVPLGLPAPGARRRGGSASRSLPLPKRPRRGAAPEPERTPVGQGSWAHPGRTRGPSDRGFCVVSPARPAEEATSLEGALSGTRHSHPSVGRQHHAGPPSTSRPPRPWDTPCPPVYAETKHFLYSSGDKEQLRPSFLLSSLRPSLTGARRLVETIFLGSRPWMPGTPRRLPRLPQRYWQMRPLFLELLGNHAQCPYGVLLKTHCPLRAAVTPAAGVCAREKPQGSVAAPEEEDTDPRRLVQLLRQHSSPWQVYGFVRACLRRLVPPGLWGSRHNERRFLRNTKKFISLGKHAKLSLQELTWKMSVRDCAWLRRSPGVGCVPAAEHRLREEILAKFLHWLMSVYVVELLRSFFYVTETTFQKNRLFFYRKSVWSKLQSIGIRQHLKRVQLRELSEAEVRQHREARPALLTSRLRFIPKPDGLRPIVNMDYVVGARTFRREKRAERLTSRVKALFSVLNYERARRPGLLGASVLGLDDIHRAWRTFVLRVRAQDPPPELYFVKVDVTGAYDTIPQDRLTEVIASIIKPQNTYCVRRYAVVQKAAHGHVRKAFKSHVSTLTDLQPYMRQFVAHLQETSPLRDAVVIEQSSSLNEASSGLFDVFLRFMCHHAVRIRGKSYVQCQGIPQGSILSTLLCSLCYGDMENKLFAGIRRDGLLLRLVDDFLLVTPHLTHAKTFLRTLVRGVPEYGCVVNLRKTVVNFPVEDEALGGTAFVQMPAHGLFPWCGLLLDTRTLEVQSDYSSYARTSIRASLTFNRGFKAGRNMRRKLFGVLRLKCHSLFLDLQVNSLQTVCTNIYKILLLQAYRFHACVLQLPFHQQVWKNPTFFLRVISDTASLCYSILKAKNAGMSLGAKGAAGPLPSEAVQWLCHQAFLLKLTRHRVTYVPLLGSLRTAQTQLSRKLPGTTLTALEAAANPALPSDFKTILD

[6] = HTRF, NRTIs as triphosphates, n = 3 wells

Structure (SMILES): Cc1cn([C@H]2C[C@H](N=[N+]=[N-])[C@@H](CO)O2)c(=O)[nH]c1=O [AZT, zidovudine]
- IC50 ([1]; read-out: IC50): 1.8 µM
- fold change in ORF2p inhibitory activity compared with ddTTP and d4T [2]: greater than 20 fold
- IC50 ([2]; HTRF, NRTI NTPs): 0.2 to 0.75 µM

Structure (SMILES): CC(C)Nc1cccnc1N1CCN(C(=O)c2cc3cc(NS(C)(=O)=O)ccc3[nH]2)CC1 [Delavirdine, delavirdine]
- IC50 [2, 6]: > 30 µM

Structure (SMILES): Nc1nc(=O)n([C@@H]2CS[C@H](CO)O2)cc1F [FTC, emtricitabine]
- IC50 ([1]; Homo sapiens, HeLa): 1.1 µM

Structure (SMILES): O=C(O)P(=O)(O)O [Foscarnet, foscarnet]
- IC50 [2, 6]: > 100 µM

Structure (SMILES): Cc1cn(C2C=CC(COP(=O)(OCOC(=O)OC(C)C)OCOC(=O)OC(C)C)O2)c(=O)[nH]c1=O (stereo not shown) [POC d4T, d4T bis(isopropoxycarbonyloxymethyl)phosphate]
- baseline and decitabine-induced IFN production ([4]; 10 µM, THP1 cells, 1 µM decitabine): reduced IFN further
- fold more potent than d4T in suppressing interferon secretion ([4]; TREX1 knockout THP1 cells, 5 days, 1 µM decitabine): approximately 30 fold

Structure (SMILES): CC(C)OC(=O)[C@H](C)N[P@](=O)(OC[C@H]1O[C@@H](n2ccc(=O)[nH]c2=O)[C@](C)(F)[C@@H]1O)Oc1ccccc1 [Sofosbuvir, sofosbuvir]
- inhibition in cell-based L1 assays [1]: no inhibition
- IC50 ([1]; Homo sapiens, HeLa): > 100 µM

Structure (SMILES): C[C@H](Cn1cnc2c(N)ncnc21)OCP(=O)(O)O [Tenofovir, tenofovir]
- IC50 ([1]; Homo sapiens, read-out: IC50): 3.2 µM

Structure (SMILES): Cc1cn([C@H]2CC[C@@H](CO)O2)c(=O)[nH]c1=O [ddT, dideoxythymidine]
- IC50 ([2]; HTRF, NRTI NTPs): < 0.01 µM

Structure (SMILES): Nc1ncn([C@H]2C[C@H](O)[C@@H](CO)O2)c(=O)n1 [decitabine, 5-aza-2ʹ-deoxycytidine]
- interferon (IFN) production ([4]; 1 µM, THP1 monocytes): increased

More lines, main results first:

- IC50 index, fold = IC50 (drug, µM) ÷ [dNTP] (natural counterpart, 0.1 µM) [3]: 64 fold
- IC50 [3]: 5 to 7 µM
Structure (SMILES): Nc1nc2c(ncn2[C@H]2C=C[C@@H](CO)C2)c(=O)[nH]1 [Carbovir, carbovir]

- IC50 [2, 6]: > 30 µM
Structure (SMILES): O=C1Nc2ccc(Cl)cc2[C@@](C#CC2CC2)(C(F)(F)F)O1 [Efavirenz, efavirenz]

- IC50 index, fold = IC50 (drug, µM) ÷ [dNTP] (natural counterpart, 0.1 µM) [3]: 5.4 fold
- IC50 [3]: 0.4 to 0.6 µM
Structure (SMILES): C=C1[C@H](CO)[C@@H](O)C[C@@H]1n1cnc2c(=O)[nH]c(N)nc21 [Entecavir, entecavir]

- IC50 [2, 6]: > 30 µM
Structure (SMILES): Cc1cc(C#N)cc(C)c1Oc1nc(Nc2ccc(C#N)cc2)nc(N)c1Br [Etravirine, etravirine]

- inhibition of ORF2p ([2]; HTRF, 1 mM): no inhibition
- IC50 [2, 6]: > 1000 µM
Structure (SMILES): Cc1ccnc2c1NC(=O)c1cccnc1N2C1CC1 [Nevirapine, nevirapine]
- IC50 ([1]; read-out: IC50): > 30 µM

- IC50 [2, 6]: > 30 µM
Structure (SMILES): Cc1cc(/C=C/C#N)cc(C)c1Nc1ccnc(Nc2ccc(C#N)cc2)n1 [Rilpivirine, rilpivirine]

- IC50 [5]: 15 µM
- IC50 ([2]; HTRF, NRTI NTPs): 0.009 µM
Structure (SMILES): Cc1cn([C@H]2C=C[C@@H](COP(=O)(O)OP(=O)(O)OP(=O)(O)O)O2)c(=O)[nH]c1=O [d4T-TP]

— article PMC10830420, “Structures, functions and adaptations of the human LINE-1 ORF2 protein” (Nature, 2023)
